From the Kinase Knowledgebase extract (Sharma et al. 2016)

Biological target: MAPK14 (human) (UniProt Q16539)
Experiment: Inhibition of MAPK14 Kinase Activity

Chain of MAPK14 (human) (Q16539 whole entry, looked up): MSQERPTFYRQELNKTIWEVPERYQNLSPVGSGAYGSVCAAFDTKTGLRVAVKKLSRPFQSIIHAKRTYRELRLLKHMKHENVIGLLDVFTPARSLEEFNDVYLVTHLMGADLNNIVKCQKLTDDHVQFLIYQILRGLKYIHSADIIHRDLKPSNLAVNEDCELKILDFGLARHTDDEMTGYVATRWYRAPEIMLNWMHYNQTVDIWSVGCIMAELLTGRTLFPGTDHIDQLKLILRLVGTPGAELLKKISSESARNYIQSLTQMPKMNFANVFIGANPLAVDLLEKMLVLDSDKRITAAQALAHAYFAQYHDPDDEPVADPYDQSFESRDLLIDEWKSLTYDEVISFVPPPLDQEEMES

SMILES	IC50 [nM]	Ki [nM]
CC(C)n1c(CCCC(=O)NCCO)nc(OCc2ccc(F)cc2F)c(Cl)c1=O	612	315
CC(C)n1c(NCCNC(=O)C(C)(C)O)nc(OCc2ccc(F)cc2F)c(Cl)c1=O	51.6	24.7
CC(C)n1c(NCCNC(=O)CO)nc(OCc2ccc(F)cc2F)c(Cl)c1=O	22.1	10.2
CC(C)n1c(CCCC(N)=O)nc(OCc2ccc(F)cc2F)c(Cl)c1=O	256	127
C=CCCc1nc(OCc2ccc(F)cc2F)c(Cl)c(=O)n1C(C)C	164	79.9
CCNC(=O)NCc1cc(F)ccc1COc1nc(C)n(C(C)C)c(=O)c1Cl	380	174
Cc1nc(OCc2ccc(F)cc2CNC(=O)NC2CCCCC2)c(Br)c(=O)n1C(C)C	786	372
CC(C)n1c(NCCNC(N)=O)nc(OCc2ccc(F)cc2F)c(Cl)c1=O	19.6	10.1
CC(C)n1c(CCC(N)=O)nc(OCc2ccc(F)cc2F)c(Cl)c1=O	2040	976
CC(C)n1c(-c2ccc(C(N)=O)cc2)nc(OCc2ccc(F)cc2F)cc1=O	260	144
CC(C)n1c(OCCCCO)nc(OCc2ccc(F)cc2F)c(Cl)c1=O	139	68.5

Other lines, results leading:

IC50 [nM]	Ki [nM]	SMILES
578	371	CC(=O)N[C@@H]1CCN(c2nc(OCc3ccc(F)cc3F)c(Cl)c(=O)n2C(C)C)C1
53	28.3	CC(C)n1cnc(OCc2ccc(F)cc2F)c(Br)c1=O
80	41.9	CNC(=O)CNc1nc(OCc2ccc(F)cc2F)c(Br)c(=O)n1C(C)C
810	476	CC(C)n1c(N2CC[C@@H](NC(=O)OCc3cccnc3)C2)nc(OCc2ccc(F)cc2F)c(Br)c1=O
391	181	CC(C)n1c(CCCC(N)=O)nc(OCc2ccc(F)cc2F)c(Br)c1=O
7.2	3.32	CC(C)n1c(NCCCNS(C)(=O)=O)nc(OCc2ccc(F)cc2F)c(Br)c1=O
29.9	13.7	CC(C)n1c(NCc2ccc(F)cc2)nc(OCc2ccc(F)cc2F)c(Br)c1=O
605	297	CC(C)n1c(N2CC[C@@H](O)C2)nc(OCc2ccc(F)cc2F)c(Br)c1=O
1660	1070	CC(C)n1c(N2CC[C@H](N)C2)nc(OCc2ccc(F)cc2F)c(Cl)c1=O
267	139	CC(C)n1c(O)nc(OCc2ccc(F)cc2F)c(Cl)c1=O
87.9	41.4	CC(=O)N1CCC(Nc2nc(OCc3ccc(F)cc3F)c(Br)c(=O)n2C(C)C)CC1
296	148	CC(C)n1cnc(OCc2ccc(F)cc2F)c(Cl)c1=O
158	81	CC(C)n1c(N2CCN(C(=O)CN)CC2)nc(OCc2ccc(F)cc2F)c(Br)c1=O
